Where a name gives a salt, the structure may show the parent alone.

The first experiment deals with T1, recombinant human Lp-PLA2 (Homo sapiens, UniProt Q13093).
T1 sequence (Q13093 22-441): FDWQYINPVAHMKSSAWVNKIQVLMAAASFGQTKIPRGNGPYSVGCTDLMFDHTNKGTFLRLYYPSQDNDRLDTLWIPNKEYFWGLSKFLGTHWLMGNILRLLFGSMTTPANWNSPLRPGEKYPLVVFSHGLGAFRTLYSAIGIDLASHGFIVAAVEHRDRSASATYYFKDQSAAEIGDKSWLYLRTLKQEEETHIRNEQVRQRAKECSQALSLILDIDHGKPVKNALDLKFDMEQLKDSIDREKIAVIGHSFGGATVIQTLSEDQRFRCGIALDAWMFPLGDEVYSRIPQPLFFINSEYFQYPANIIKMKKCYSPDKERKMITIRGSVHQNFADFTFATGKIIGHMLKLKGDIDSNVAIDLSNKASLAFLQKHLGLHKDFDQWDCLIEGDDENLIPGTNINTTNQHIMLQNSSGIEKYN
Nature of the experiment: Recombinant human Lp-PLA2 assay (rhLp-PLA2, PED6 assay). The experiment is classed as biochemical. Particulars: text thresholds; upper limit for pIC50 in this assay is 9.3; read-out: pIC50 values in the PED6 assay (converted). From the text: (1) Recombinant Human Lp-PLA2 Assay (rhLp-PLA2) (Also Referred to as “PED6” Assay)
N-((6-(2,4-dinitrophenyl)amino)-hexanoyl)-2-(4,4-difluoro-5,7-dimethyl-4-bora-3a,4a-diaza-s-indacene-3-pentanoyl)-1-hexadecanoyl-sn-glycero-3-phosphoethanolamine, triethylammonium salt (PED6) is a commercially available fluorescently-labelled phospholipid, which is commercially available from Molecular Probes. There is a quenching […] position and a Bodipy fluorescein (FL) group in the sn2 position.
The PED6 assay was run as an unquenched 10 μL assay. Compounds source plate was prepared by making 1:3 (by volume) serial dilution of the compounds into pure DMSO on 384-well microplate. […] 5 μL of recombinant human Lp-PLA2 enzyme (2 nM rhLp-PLA2 in assay buffer of 50 mM HEPES, pH7.4, 150 mM NaCl, 1 mM CHAPS) was added to each well of the plate with compounds. Plates were centrifuged for 10 sec at 500 rpm. […] Plates were centrifuged for 10 sec at 500 rpm. Plate was covered to protect from light and incubated for 20 min at room temperature. […] PIC50 data, curve and QC analysis was conducted by using XL fit module in Excel.
For `O=c1nc(NCCc2ccc(Oc3ccc(Cl)c(C(F)(F)F)c3)cc2)[nH]cc1Cc1cncnc1` [E11, 2-{[2-(4-{[4-Chloro-3-(trifluoromethyl)phenyl]oxy}phenyl)ethyl]amino}-5-(5-pyrimidinylmethyl)-4(1H)-pyrimidinone], the IC50 is at most 1 nM. On the same count and under the same terms, the figure for `COc1ncc(Cc2c[nH]c(OCCc3ccc(Oc4ccc(Cl)c(C(F)(F)F)c4)cc3)nc2=O)cn1` [E24, 2-{[2-(4-{[4-Chloro-3-(trifluoromethyl)phenyl]oxy}phenyl)ethyl]oxy}-5-{[2-(methyloxy)-5-pyrimidinyl]methyl}-4(1H)-pyrimidinone] is at most 1 nM; for `COc1ncc(Cc2cn(C)c(OCCc3ccc(Oc4ccc(Cl)c(C(F)(F)F)c4)cc3)nc2=O)cn1` [E25, 2-{[2-(4-{[4-Chloro-3-(trifluoromethyl)phenyl]oxy}phenyl)ethyl]oxy}-1-methyl-5-{[2-(methyloxy)-5-pyrimidinyl]methyl}-4(1H)-pyrimidinone] it is at most 1 nM; for `O=c1nc(OCCc2cc(F)c(Oc3ccc(Cl)c(C(F)(F)F)c3)c(F)c2)[nH]cc1Cc1cncnc1` [E29, 2-{[2-(4-{[4-Chloro-3-(trifluoromethyl)phenyl]oxy}-3,5-difluorophenyl)ethyl]oxy}-5-(5-pyrimidinylmethyl)-4(1H)-pyrimidinone] it is at most 1 nM.

Turning to `Cn1cc(Cc2cncnc2)c(=O)nc1OCCc1cc(F)c(Oc2ccc(Cl)c(C(F)(F)F)c2)c(F)c1` [E30, 2-{[2-(4-{[4-Chloro-3-(trifluoromethyl)phenyl]oxy}-3,5-difluorophenyl)ethyl]oxy}-1-methyl-5-(5-pyrimidinylmethyl)-4(1H)-pyrimidinone], the IC50 is at most 1 nM. The same measure, in the same setting: the figure for `O=c1nc(OCCc2ccc(Oc3ccc(Cl)c(C(F)(F)F)c3)c(F)c2)[nH]cc1Cc1cncnc1` [E31, 2-{[2-(4-{[4-Chloro-3-(trifluoromethyl)phenyl]oxy}-3-fluorophenyl)ethyl]oxy}-5-(5-pyrimidinylmethyl)-4(1H)-pyrimidinone trifluoroacetate] is at most 1 nM; for `COc1ncc(Cc2c[nH]c(SCc3ccc(Oc4ccc(F)cc4)cc3)nc2=O)cn1` [E52, 2-((4-(4-fluorophenoxy)benzyl)thio)-5-((2-methoxypyrimidin-5-yl)methyl)pyrimidin-4(1H)-one] it is at most 10 nM. As to `COc1ncc(Cc2cn(C)c(SCc3ccc(Oc4ccc(F)cc4)cc3)nc2=O)cn1` [E53, 2-[({4-[(4-fluorophenyl)oxy]phenyl}methyl)thio]-1-methyl-5-{[2-(methyloxy)-5-pyrimidinyl]methyl}-4(1H)-pyrimidinone], the IC50 is at most 10 nM. Same read-out and setting: the figure for `Cn1cc(Cc2c[nH]c(SCc3ccc(Oc4ccc(Cl)c(C(F)(F)F)c4)c(C#N)c3)nc2=O)cn1` [E58, 2-(4-chloro-3-(trifluoromethyl)phenoxy)-5-(((5-((1-methyl-1H-pyrazol-4-yl)methyl)-4-oxo-1,4-dihydropyrimidin-2-yl)thio)methyl)benzonitrile, trifluoroacetic acid salt] is at most 1 nM; for `Cn1cc(Cc2cn(C)c(SCc3ccc(Oc4ccc(F)c(C(F)(F)F)c4)c(C#N)c3)nc2=O)cn1` [E60, 2-(4-fluoro-3-(trifluoromethyl)phenoxy)-5-(((1-methyl-5-((1-methyl-1H-pyrazol-4-yl)methyl)-4-oxo-1,4-dihydropyrimidin-2-yl)thio)methyl)benzonitrile, trifluoroacetic acid salt] it is at most 1 nM; for `CCc1cn(C)c(SCc2ccc(Oc3ccc(Cl)c(C(F)(F)F)c3)c(C#N)c2)nc1=O` [E64, 2-{[4-chloro-3-(trifluoromethyl)phenyl]oxy}-5-{[(5-ethyl-1-methyl-4-oxo-1,4-dihydro-2-pyrimidinyl)thio]methyl}benzonitrile] it is at most 10 nM. `COc1ncc(Cc2c[nH]c(SCc3ccc(Oc4ccc(Cl)c(C(F)(F)F)c4)cc3)nc2=O)cn1` [E74, 2-{[(4-{[4-chloro-3-(trifluoromethyl)phenyl]oxy}phenyl)methyl]thio}-5-{[2-(methyloxy)-5-pyrimidinyl]methyl}-4(1H)-pyrimidinone]: the IC50 was at most 1 nM. For the compound `COc1ncc(Cc2c[nH]c(SCc3ccc(Oc4ccc(F)c(C(F)(F)F)c4)c(C#N)c3)nc2=O)cn1` [E89, 2-{[4-fluoro-3-(trifluoromethyl)phenyl]oxy}-5-{[(5-{[2-(methyloxy)-5-pyrimidinyl]methyl}-4-oxo-1,4-dihydro-2-pyrimidinyl)thio]methyl}benzonitrile], the IC50 was at most 1 nM. Still for that read-out and setting: the figure for `N#Cc1cc(CSc2nc(=O)c(Cc3cncnc3)c[nH]2)ccc1Oc1cccc(C(F)(F)F)c1` [E96, 5-({[4-oxo-5-(5-pyrimidinylmethyl)-1,4-dihydro-2-pyrimidinyl]thio}methyl)-2-{[3-(trifluoromethyl)phenyl]oxy}benzonitrile] is at most 1 nM; for `COc1ncc(Cc2c[nH]c(SCc3ccc(Oc4cccc(C(F)(F)F)c4)c(C#N)c3)nc2=O)cn1` [E100, 5-{[(5-{[2-(methyloxy)-5-pyrimidinyl]methyl}-4-oxo-1,4-dihydro-2-pyrimidinyl)thio]methyl}-2-{[3-(trifluoromethyl)phenyl]oxy}benzonitrile] it is at most 1 nM; for `Cn1cc(Cc2cncnc2)c(=O)nc1SCCc1ccc(Oc2ccc(Cl)c(C(F)(F)F)c2)cc1` [E116, 2-{[2-(4-{[4-chloro-3-(trifluoromethyl)phenyl]oxy}phenyl)ethyl]thio}-1-methyl-5-(5-pyrimidinylmethyl)-4(1H)-pyrimidinone] it is at most 1 nM. With `N#Cc1cc(CCSc2nc(=O)c(Cc3cncnc3)c[nH]2)ccc1Oc1ccc(Cl)c(C(F)(F)F)c1` [E118, 2-{[4-chloro-3-(trifluoromethyl)phenyl]oxy}-5-(2-{[4-oxo-5-(5-pyrimidinylmethyl)-1,4-dihydro-2-pyrimidinyl]thio}ethyl)benzonitrile], the IC50 is at most 1 nM. Still for that read-out and setting: with `COc1ncc(Cc2c[nH]c(SCCc3ccc(Oc4ccc(Cl)c(C(F)(F)F)c4)c(C#N)c3)nc2=O)cn1` [E119, 2-{[4-chloro-3-(trifluoromethyl)phenyl]oxy}-5-{2-[(5-{[2-(methyloxy)-5-pyrimidinyl]methyl}-4-oxo-1,4-dihydro-2-pyrimidinyl)thio]ethyl}benzonitrile] the figure was at most 1 nM; with `COc1ncc(Cc2c[nH]c(OCCc3ccc(Oc4ccc(C(F)(F)F)cn4)cc3)nc2=O)cn1` [E137, 5-((2-methoxypyrimidin-5-yl)methyl)-2-(4-((5-(trifluoromethyl)pyridin-2-yl)oxy)phenethoxy)pyrimidin-4(1H)-one], at most 10 nM. Turning to `COc1ncc(Cc2c[nH]c(OCCc3ccc(Oc4c(F)cc(Cl)cc4F)cc3)nc2=O)cn1` [E181, 2-(4-(4-chloro-2,6-difluorophenoxy)phenethoxy)-5-((2-methoxypyrimidin-5-yl)methyl)pyrimidin-4(1H)-one], the IC50 was at most 10 nM.

The same experiment, now with this note: upper limit for pIC50 obtained in this PED6 assay is 9.3; read-out: rhLp-PLA2 (PED6 assay) (pIC50) (converted).
For the compound `O=c1nc(NCCc2ccc(Oc3ccc(Cl)c(C(F)(F)F)c3)cc2)[nH]cc1Cc1cncnc1` [E11, 2-{[2-(4-{[4-Chloro-3-(trifluoromethyl)phenyl]oxy}phenyl)ethyl]amino}-5-(5-pyrimidinylmethyl)-4(1H)-pyrimidinone], the IC50 was 1 nM.

`Cn1cc(Cc2c[nH]c(OCCc3ccc(Oc4ccc(Cl)c(C(F)(F)F)c4)cc3)nc2=O)cn1` [E22, 2-{[2-(4-{[4-Chloro-3-(trifluoromethyl)phenyl]oxy}phenyl)ethyl]oxy}-5-[(1-methyl-1H-pyrazol-4-yl)methyl]-4(1H)-pyrimidinone trifluoroacetate]: the IC50 was 0.794 nM. The same measure, in the same setting: the figure for `COc1ncc(Cc2c[nH]c(OCCc3ccc(Oc4ccc(Cl)c(C(F)(F)F)c4)cc3)nc2=O)cn1` [E24, 2-{[2-(4-{[4-Chloro-3-(trifluoromethyl)phenyl]oxy}phenyl)ethyl]oxy}-5-{[2-(methyloxy)-5-pyrimidinyl]methyl}-4(1H)-pyrimidinone] is 0.794 nM; for `Cn1cc(Cc2c[nH]c(SCc3ccc(Oc4ccc(Cl)c(C(F)(F)F)c4)c(C#N)c3)nc2=O)cn1` [E58, 2-(4-chloro-3-(trifluoromethyl)phenoxy)-5-(((5-((1-methyl-1H-pyrazol-4-yl)methyl)-4-oxo-1,4-dihydropyrimidin-2-yl)thio)methyl)benzonitrile, trifluoroacetic acid salt] it is at most 0.501 nM. Same read-out and setting: with `COc1ncc(Cc2c[nH]c(SCc3ccc(Oc4ccc(Cl)c(C(F)(F)F)c4)cc3)nc2=O)cn1` [E74, 2-{[(4-{[4-chloro-3-(trifluoromethyl)phenyl]oxy}phenyl)methyl]thio}-5-{[2-(methyloxy)-5-pyrimidinyl]methyl}-4(1H)-pyrimidinone] the figure was 0.631 nM; with `Cn1cc(Cc2c[nH]c(SCc3ccc(Oc4ccc(Cl)c(C(F)(F)F)c4)c(C#N)c3)nc2=O)c2ccccc21` [E81, 2-(4-chloro-3-(trifluoromethyl)phenoxy)-5-(((5-((1-methyl-1H-indol-3-yl)methyl)-4-oxo-1,4-dihydropyrimidin-2-yl)thio)methyl)benzonitrile], 25.1 nM; with `Cn1cc(Cc2c[nH]c(SCCc3ccc(Oc4ccc(Cl)c(C(F)(F)F)c4)cc3)nc2=O)cn1` [E112], at most 0.501 nM. On the same count and under the same terms, the figure for `O=c1nc(OCCc2ccc(Oc3ccc(Cl)c(C(F)(F)F)c3)cc2)[nH]cc1Cc1c(F)cc(F)cc1F` [E129, 2-{[2-(4-{[4-chloro-3-(trifluoromethyl)phenyl]oxy}phenyl)ethyl]oxy}-5-[(2,4,6-trifluorophenyl)methyl]-4(1H)-pyrimidinone] is 3.98 nM.

These data come from patent US8637536B2, “Pyrimidinone compounds for use in the treatment of diseases or conditions mediated by Lp-PLA2” (Glaxo Group Limited, priority 2010, dated 2014).
